SMILES strings stand for the structures.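 A five-concentration, 48-hour dose response in 96-well plates underlies each endpoint, interpolated linearly between surrounding concentrations. At the TGI there is no net growth.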

Holding throughout (assay): inhibition of tumour cell growth, NCI panel, 48 h
The subject of experiment [1] is UACC-257 melanoma.
The test system of experiment [2] is UO-31 renal.
Experiment [3] relates to KM12 colon.
In experiment [4] the test system is SNB-19 CNS.
Experiment [5] deals with SF-268 CNS.
The subject of experiment [6] is HL-60(TB) leukemia.
Experiment [7] has as its system CAKI-1 renal.

With `COC(=O)C1=C(C(=O)OC)C23C=CC=CC24C(C(=O)OC)=C(C(=O)OC)C4C1C3` (configuration not stated), the TGI in experiment [1], in experiment [2], in experiment [3], in experiment [4], in experiment [5] and in experiment [6] was above 100 µM each time.
Take `Cc1c(O)c(=O)ccn1C1OC(CO)C(O)C1O` (configuration not stated): the TGI in experiment [1], in experiment [2], in experiment [7], in experiment [3], in experiment [4] and in experiment [5] was above 100 µM throughout. For the same compound, the TGI in experiment [6] turned out to be 56.3 µM.
With `NC(=O)c1csc(C2C=CC(CO)O2)n1` (configuration not stated), the TGI in experiment [1] was above 100 µM; in experiment [2], above 100 µM; in experiment [7], above 100 µM; in experiment [3], above 10 µM; in experiment [4], above 100 µM; in experiment [5], above 100 µM. The TGI in experiment [6] is above 100 µM.
Take `CC1=C(C(=O)Nc2ccccc2C)C(c2ccc([N+](=O)[O-])cc2)C(C(=O)Nc2ccccc2C)=C(C)N1`: the TGI in experiment [1], in experiment [2], in experiment [7], in experiment [3], in experiment [4] and in experiment [5] was above 100 µM in each case. In addition, the TGI in experiment [6] amounted to 47 µM.
Consider `Cc1ccc(S(=O)(=O)CNC(=S)CCCC(=S)NCS(=O)(=O)c2ccc(C)cc2)cc1`, for which the TGI in experiment [1], in experiment [2], in experiment [7], in experiment [3], in experiment [4] and in experiment [5] was above 100 µM in each case. Also, the TGI in experiment [6] was above 100 µM.
Regarding `Cc1ccc(S(=O)(=O)N2CCC3(C(/C=C/c4ccccc4)=Nc4ccccc43)C2c2ccccc2)cc1` (configuration not stated), the TGI in experiment [1], in experiment [2], in experiment [7], in experiment [3], in experiment [4] and in experiment [5] was above 100 µM throughout. Moreover, the TGI in experiment [6] is above 100 µM.
Turning to `N/N=C1\c2ccccc2C2/C(=N\N)c3ccccc3C12` (configuration not stated), the TGI in experiment [1], in experiment [7], in experiment [3], in experiment [4], in experiment [5] and in experiment [6] was above 100 µM each time.
On to `C=CCNC1=C(C(=O)OCC)C(=O)CO1`, for which the TGI in experiment [1], in experiment [2], in experiment [7], in experiment [4], in experiment [5] and in experiment [6] was above 100 µM each time.
Regarding `CC1CCCC(C(O)CC2CC(=O)N(c3ccccc3)C(=O)C2)C1=O` (configuration not stated), the TGI in experiment [1], in experiment [2], in experiment [7], in experiment [3], in experiment [4] and in experiment [5] was above 100 µM throughout. The compound further showed a TGI in experiment [6] above 100 µM.
On to `CC(=O)NNc1nc(C)c(C(/C=C/c2ccc(Cl)cc2)=N\NS(=O)(=O)c2ccc(C)cc2)s1`, for which the TGI in experiment [1], in experiment [2], in experiment [7], in experiment [3], in experiment [4] and in experiment [5] was above 100 µM in each case. Also, the TGI in experiment [6] is above 100 µM.
Regarding `C/C(=N\NC(=O)CC(=O)Nc1ccc(Cl)cc1)c1cc2ccccc2oc1=O`, the TGI in experiment [1], in experiment [2], in experiment [3], in experiment [4] and in experiment [6] was above 100 µM each time.
Turning to `Cn1cc2c(n1)c(N/N=C/c1ccccc1)nn1nnnc21`, the TGI in experiment [1], in experiment [2], in experiment [7], in experiment [4], in experiment [5] and in experiment [6] was above 100 µM throughout.
As to `CN(C)c1ccc(/C=C2\CNC/C(=C\c3ccc(N(C)C)cc3)C2=O)cc1`, the TGI in experiment [1] and in experiment [2] was above 100 µM throughout.
For the compound `COc1ccc(NC(=O)C(=O)NNC(=O)c2sc(NNC(C)=O)nc2C)c([N+](=O)[O-])c1`, the TGI in experiment [1], in experiment [2], in experiment [3], in experiment [4], in experiment [5] and in experiment [6] was above 100 µM each time.
With `CCOP(=O)(CC(=O)C1=C(O)C(CCCNC(=O)OC(C)(C)C)N(Cc2ccc(OC)c(OC)c2)C1=O)OCC` (configuration not stated), the TGI in experiment [1], in experiment [2], in experiment [3], in experiment [4], in experiment [5] and in experiment [6] was above 100 µM throughout.
Take `CC1C=C(OC(=O)c2ccccc2)C(=O)C(n2cc(F)c(=O)n(C(=O)c3ccccc3)c2=O)O1` (configuration not stated): the TGI in experiment [1] was above 100 µM; in experiment [2], above 100 µM; in experiment [7], 81.4 µM; in experiment [4] it was above 100 µM; in experiment [6], 50.1 µM.

These data come from PubChem BioAssay (NCI).
